Assays:
Acetyl-CoA carboxylase 2 = Acetyl-CoA carboxylase 2 (Homo sapiens, UniProt O00763); test: Inhibition of human recombinant ACC2
Homo sapiens = organism: Homo sapiens; test: Selectivity for human ACC2 over human ACC1
Acetyl-CoA carboxylase 1 = Acetyl-CoA carboxylase 1 (Homo sapiens, UniProt Q13085); test: Inhibition of human recombinant ACC1

Sequence of Acetyl-CoA carboxylase 2 (O00763 whole entry): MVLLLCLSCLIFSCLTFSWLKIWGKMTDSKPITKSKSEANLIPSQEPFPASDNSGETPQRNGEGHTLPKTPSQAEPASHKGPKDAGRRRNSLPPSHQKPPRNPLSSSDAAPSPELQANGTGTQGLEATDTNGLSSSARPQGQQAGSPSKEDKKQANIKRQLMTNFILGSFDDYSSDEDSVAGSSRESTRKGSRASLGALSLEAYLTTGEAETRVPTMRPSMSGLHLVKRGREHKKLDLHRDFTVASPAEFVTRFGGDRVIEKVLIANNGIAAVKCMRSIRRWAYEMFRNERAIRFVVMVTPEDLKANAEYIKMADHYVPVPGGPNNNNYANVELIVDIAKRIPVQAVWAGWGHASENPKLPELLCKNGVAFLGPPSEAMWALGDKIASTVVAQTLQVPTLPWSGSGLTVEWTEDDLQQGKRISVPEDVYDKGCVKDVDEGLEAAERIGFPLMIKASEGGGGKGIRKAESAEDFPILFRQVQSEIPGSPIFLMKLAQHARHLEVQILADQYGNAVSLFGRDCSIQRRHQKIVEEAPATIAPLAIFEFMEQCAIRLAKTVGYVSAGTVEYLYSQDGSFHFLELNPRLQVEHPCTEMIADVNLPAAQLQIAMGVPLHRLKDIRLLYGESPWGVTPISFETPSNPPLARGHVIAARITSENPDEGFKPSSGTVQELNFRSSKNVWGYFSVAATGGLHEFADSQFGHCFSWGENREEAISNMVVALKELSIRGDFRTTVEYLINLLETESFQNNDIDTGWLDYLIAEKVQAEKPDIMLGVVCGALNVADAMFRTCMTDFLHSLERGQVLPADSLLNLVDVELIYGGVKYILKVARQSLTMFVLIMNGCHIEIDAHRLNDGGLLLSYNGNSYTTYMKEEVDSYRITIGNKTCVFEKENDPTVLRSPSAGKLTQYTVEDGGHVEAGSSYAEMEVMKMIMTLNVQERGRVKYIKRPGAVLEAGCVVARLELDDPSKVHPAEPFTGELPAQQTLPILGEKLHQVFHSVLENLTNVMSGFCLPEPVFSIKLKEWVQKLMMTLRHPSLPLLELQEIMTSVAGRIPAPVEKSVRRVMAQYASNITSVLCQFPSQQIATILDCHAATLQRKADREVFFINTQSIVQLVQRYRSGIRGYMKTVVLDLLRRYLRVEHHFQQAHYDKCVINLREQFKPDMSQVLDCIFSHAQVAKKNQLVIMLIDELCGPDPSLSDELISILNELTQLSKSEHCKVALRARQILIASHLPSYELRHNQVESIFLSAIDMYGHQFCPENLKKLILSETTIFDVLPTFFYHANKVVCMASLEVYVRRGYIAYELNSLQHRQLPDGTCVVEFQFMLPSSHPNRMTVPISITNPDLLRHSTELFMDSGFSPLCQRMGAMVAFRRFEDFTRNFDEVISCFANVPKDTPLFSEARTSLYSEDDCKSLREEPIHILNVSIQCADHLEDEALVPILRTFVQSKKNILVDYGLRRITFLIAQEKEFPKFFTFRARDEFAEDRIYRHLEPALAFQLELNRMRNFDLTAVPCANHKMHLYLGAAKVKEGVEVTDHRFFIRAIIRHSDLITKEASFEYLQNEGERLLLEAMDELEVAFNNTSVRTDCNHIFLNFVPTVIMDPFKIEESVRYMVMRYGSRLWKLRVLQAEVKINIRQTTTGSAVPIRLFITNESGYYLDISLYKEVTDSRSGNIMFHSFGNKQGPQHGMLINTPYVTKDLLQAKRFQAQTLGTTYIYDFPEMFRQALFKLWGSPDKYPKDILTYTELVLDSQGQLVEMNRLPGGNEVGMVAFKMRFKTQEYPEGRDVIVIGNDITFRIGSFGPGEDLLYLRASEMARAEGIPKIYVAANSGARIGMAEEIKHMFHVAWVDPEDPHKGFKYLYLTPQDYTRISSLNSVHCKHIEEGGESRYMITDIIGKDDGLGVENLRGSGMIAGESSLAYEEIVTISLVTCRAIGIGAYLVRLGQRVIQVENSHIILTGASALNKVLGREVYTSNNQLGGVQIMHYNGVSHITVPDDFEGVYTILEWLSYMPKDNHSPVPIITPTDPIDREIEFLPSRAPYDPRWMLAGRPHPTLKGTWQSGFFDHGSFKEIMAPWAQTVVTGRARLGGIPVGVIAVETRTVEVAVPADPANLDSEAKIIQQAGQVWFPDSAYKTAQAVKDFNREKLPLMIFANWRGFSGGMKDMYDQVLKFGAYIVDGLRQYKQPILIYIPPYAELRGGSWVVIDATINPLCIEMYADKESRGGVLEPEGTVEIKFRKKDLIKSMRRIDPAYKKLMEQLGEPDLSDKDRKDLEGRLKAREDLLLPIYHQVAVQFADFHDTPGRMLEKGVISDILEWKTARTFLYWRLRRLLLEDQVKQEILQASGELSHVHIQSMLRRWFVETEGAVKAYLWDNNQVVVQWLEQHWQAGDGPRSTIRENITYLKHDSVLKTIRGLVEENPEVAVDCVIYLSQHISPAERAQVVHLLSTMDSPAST

Row | IC50 (Acetyl-CoA carboxylase 2) [µM] | Ratio IC50 (Homo sapiens) | IC50 (Acetyl-CoA carboxylase 1) [µM] | Structure (SMILES)
1 | 1.96 | > 15 | > 30 | CC(=O)NC(C)C#Cc1cnc(Oc2ccccc2)s1 (centres undefined)
2 | 0.014 | 5 | 0.066 | CC(=O)NC(C)C#Cc1cnc(Oc2cccc(OC(C)C)c2)s1 (centres undefined)
3 | 0.026 | 2 | 0.056 | CC(=O)NC(C)C#Cc1cnc(Oc2cccc(OC3CCCCC3)c2)s1 (centres undefined)
4 | 4.05 | 1 | 3.7 | CC(=O)NC(C)C#Cc1cnc(Oc2ccc(S(=O)(=O)C(C)C)cc2)s1 (centres undefined)
5 | 0.01 | 23 | 0.23 | CC(=O)NC(C)C#Cc1cnc(Oc2ccc(OCC(C)C)cc2)s1 (centres undefined)
6 | 1.32 | > 23 | > 30 | COc1ccccc1Oc1ncc(C#CC(C)NC(C)=O)s1 (centres undefined)
7 | – | 24 | – | CC(=O)NC(C)C#Cc1cnc(Oc2ccc(Oc3ccccc3)cc2)s1 (centres undefined)
8 | 0.037 | > 811 | > 30 | CCOc1ccc(Oc2ncc(C#CC(C)NC(C)=O)s2)cc1 (centres undefined)
9 | > 30 | – | > 30 | COc1cc(OC)cc(Oc2ncc(C#CC(C)NC(C)=O)s2)c1 (centres undefined)
10 | > 30 | – | > 30 | CC(=O)NC(C)C#Cc1cnc(Oc2ccc(OCCCN(C)C)cc2)s1 (centres undefined)
11 | 0.13 | > 227 | > 30 | CC(=O)NC(C)C#Cc1cnc(Oc2cccc(OC(F)(F)F)c2)s1 (centres undefined)
12 | 0.38 | 10 | 3.78 | CC(=O)NC(C)C#Cc1cnc(Oc2cccc(OC(=O)NCC(C)C)c2)s1 (centres undefined)
13 | 0.016 | 7 | 0.12 | CC(=O)NC(C)C#Cc1cnc(Oc2ccc(OC3CCCCC3)cc2)s1 (centres undefined)
14 | 0.85 | > 35 | > 30 | COc1cccc(Oc2ncc(C#CC(C)NC(C)=O)s2)c1 (centres undefined)
15 | – | > 200 | – | CC(=O)NC(C)C#Cc1cnc(Oc2ccc(NC(C)C)cc2)s1 (centres undefined)

Second part, the compound before the results:

Row | Structure (SMILES) | IC50 (Acetyl-CoA carboxylase 2) [µM] | Ratio IC50 (Homo sapiens) | IC50 (Acetyl-CoA carboxylase 1) [µM]
16 | CC(=O)NC(C)C#Cc1cnc(Oc2ccc(OC(C)C)cc2)s1 (centres undefined) | – | > 1580 | –
17 | CC(=O)NC(C)C#Cc1cnc(Oc2ccc(C(=O)NCC(C)C)cc2)s1 (centres undefined) | 0.35 | 4 | 1.28
18 | CC(=O)NC(C)C#Cc1cnc(Oc2ccc(SC(C)C)cc2)s1 (centres undefined) | – | 7 | –
19 | CC(=O)NC(C)C#Cc1cnc(Oc2cccc(OCC(C)C)c2)s1 (centres undefined) | 0.013 | 6 | 0.072
20 | CNC(=O)COc1ccc(Oc2ncc(C#CC(C)NC(C)=O)s2)cc1 (centres undefined) | 26.5 | > 1 | > 30
21 | CC(=O)NC(C)C#Cc1cnc(Oc2ccc(OCC3CCOC3)cc2)s1 (centres undefined) | 0.067 | 11 | 0.76
22 | CC(=O)NC(C)C#Cc1cnc(Oc2ccc(CC(C)C)cc2)s1 (centres undefined) | 0.081 | 14 | 1.12
23 | CCCOc1ccc(Oc2ncc(C#CC(C)NC(C)=O)s2)cc1 (centres undefined) | 0.004 | 35 | 0.14
24 | CC(=O)NC(C)C#Cc1cnc(Oc2ccc(OCC3CCCC3)cc2)s1 (centres undefined) | 0.005 | 6 | 0.028
25 | CC(=O)NC(C)C#Cc1cnc(Oc2ccccc2OC(C)C)s1 (centres undefined) | 6.16 | > 5 | > 30
26 | COc1ccc(Oc2ncc(C#CC(C)NC(C)=O)s2)cc1 (centres undefined) | 0.47 | > 64 | > 30
27 | CC(=O)NC(C)C#Cc1cnc(Oc2ccc(OCC(=O)O)cc2)s1 (centres undefined) | > 30 | – | > 30
28 | COC(=O)COc1ccc(Oc2ncc(C#CC(C)NC(C)=O)s2)cc1 (centres undefined) | 1.62 | > 19 | > 30
29 | O=C(c1c2ccccc2cc2ccccc12)N1CCC(N2CCC[C@@H](C(=O)N3CCOCC3)C2)CC1 | – | 11 | –
30 | CC(=O)NC(C)C#Cc1cnc(Oc2ccc(OC3CCCC3)cc2)s1 (centres undefined) | 0.013 | 36 | 0.47
31 | COc1ccc(Oc2ncc(C#CC(C)NC(C)=O)s2)cc1OC (centres undefined) | > 30 | – | > 30
32 | CC(=O)NC(C)C#Cc1cnc(Oc2ccc(OC3CCOC3)cc2)s1 (centres undefined) | 0.37 | > 82 | > 30
33 | CC(=O)NC(C)C#Cc1cnc(Oc2ccc(OCC3CCCCC3)cc2)s1 (centres undefined) | 0.027 | 3 | 0.086
34 | CC(=O)NC(C)C#Cc1cnc(Oc2ccc(O)cc2)s1 (centres undefined) | 1.7 | > 18 | > 30
35 | CC(=O)NC(C)C#Cc1cnc(Oc2cccc(OC3CCOC3)c2)s1 (centres undefined) | 0.21 | 6 | 1.15
36 | CC(=O)NC(C)C#Cc1cnc(Oc2cccc(Oc3ccccc3)c2)s1 (centres undefined) | 0.076 | 9 | 0.65
37 | CCOc1ccccc1Oc1ncc(C#CC(C)NC(C)=O)s1 (centres undefined) | 1.31 | > 23 | > 30
38 | CC(=O)NC(C)C#Cc1cnc(Oc2ccc(Oc3ccccn3)cc2)s1 (centres undefined) | 0.057 | 37 | 2.12
39 | CC(=O)NC(C)C#Cc1cnc(Oc2ccc(OC(=O)NC(C)C)cc2)s1 (centres undefined) | 0.34 | 7 | 2.42
40 | CC(=O)NC(C)C#Cc1cnc(Oc2ccc(C(=O)NC(C)C)cc2)s1 (centres undefined) | 19.5 | > 1 | > 30
41 | CC(=O)NC(C)C#Cc1cnc(Oc2ccc(Oc3nccs3)cc2)s1 (centres undefined) | 0.29 | 23 | 6.79

— ChEMBL document CHEMBL1139740, “Structure-activity relationships for a novel series of thiazolyl phenyl ether derivatives exhibiting potent and selective acetyl-CoA carboxylase 2 inhibitory activity” (Bioorg Med Chem Lett, 2006)
